Measured values: patent publication US20220160686A1, “MACROCYCLIC AZOLOPYRIDINE DERIVATIVES AS EED AND PRC2 MODULATORS” (Fulcrum Therapeutics, Inc., priority 2019, published 2022)
Read-outs that look alike come from different tables or passages of the source.

How the values were obtained:
EZH2/PRC2 complex = EZH2/PRC2 complex (Homo sapiens, UniProt O75530); test: Histone methyltransferase assay (radioisotope-based HotSpot); assay type: biochemical; details: EZH2/PRC2 complex 10 nM, core histone substrate 0.05 mg/ml, 3H-SAM 1 μM; read-out: IC50, inhibitory effects on the HMT enzyme
Chain of EZH2/PRC2 complex (O75530 whole entry): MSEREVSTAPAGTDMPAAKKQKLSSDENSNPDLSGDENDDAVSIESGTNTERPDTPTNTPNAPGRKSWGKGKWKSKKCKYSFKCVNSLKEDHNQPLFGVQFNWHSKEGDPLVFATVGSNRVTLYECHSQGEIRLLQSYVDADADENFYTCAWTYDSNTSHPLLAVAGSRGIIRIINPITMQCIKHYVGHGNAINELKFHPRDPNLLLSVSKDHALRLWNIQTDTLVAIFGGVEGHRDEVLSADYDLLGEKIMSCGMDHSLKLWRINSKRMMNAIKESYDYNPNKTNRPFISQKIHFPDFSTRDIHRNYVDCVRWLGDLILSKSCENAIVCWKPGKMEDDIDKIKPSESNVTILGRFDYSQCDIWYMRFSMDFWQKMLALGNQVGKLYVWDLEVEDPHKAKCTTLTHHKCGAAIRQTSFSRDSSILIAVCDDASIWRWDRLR
Chain of EZH2/PRC2 complex (Q15910 whole entry partner): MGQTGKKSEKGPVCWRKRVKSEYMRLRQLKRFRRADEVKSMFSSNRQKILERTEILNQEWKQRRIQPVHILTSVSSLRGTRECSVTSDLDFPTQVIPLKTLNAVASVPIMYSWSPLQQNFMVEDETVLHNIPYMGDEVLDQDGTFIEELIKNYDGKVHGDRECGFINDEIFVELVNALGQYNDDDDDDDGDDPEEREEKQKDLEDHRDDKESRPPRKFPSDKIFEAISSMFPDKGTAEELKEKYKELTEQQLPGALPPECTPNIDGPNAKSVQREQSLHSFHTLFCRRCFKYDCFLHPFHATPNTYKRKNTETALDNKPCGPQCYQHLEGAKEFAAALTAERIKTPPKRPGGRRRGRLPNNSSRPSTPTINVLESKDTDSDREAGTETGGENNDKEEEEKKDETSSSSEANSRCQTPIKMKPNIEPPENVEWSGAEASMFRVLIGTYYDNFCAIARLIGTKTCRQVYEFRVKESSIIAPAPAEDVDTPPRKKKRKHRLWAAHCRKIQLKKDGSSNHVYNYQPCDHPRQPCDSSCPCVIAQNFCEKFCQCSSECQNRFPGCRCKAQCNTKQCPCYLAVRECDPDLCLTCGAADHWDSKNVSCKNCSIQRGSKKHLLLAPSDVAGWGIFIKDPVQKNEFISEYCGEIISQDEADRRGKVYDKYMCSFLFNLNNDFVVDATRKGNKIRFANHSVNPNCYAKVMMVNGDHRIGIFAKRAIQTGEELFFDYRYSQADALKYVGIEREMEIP
Chain of EZH2/PRC2 complex (Q15022 whole entry partner): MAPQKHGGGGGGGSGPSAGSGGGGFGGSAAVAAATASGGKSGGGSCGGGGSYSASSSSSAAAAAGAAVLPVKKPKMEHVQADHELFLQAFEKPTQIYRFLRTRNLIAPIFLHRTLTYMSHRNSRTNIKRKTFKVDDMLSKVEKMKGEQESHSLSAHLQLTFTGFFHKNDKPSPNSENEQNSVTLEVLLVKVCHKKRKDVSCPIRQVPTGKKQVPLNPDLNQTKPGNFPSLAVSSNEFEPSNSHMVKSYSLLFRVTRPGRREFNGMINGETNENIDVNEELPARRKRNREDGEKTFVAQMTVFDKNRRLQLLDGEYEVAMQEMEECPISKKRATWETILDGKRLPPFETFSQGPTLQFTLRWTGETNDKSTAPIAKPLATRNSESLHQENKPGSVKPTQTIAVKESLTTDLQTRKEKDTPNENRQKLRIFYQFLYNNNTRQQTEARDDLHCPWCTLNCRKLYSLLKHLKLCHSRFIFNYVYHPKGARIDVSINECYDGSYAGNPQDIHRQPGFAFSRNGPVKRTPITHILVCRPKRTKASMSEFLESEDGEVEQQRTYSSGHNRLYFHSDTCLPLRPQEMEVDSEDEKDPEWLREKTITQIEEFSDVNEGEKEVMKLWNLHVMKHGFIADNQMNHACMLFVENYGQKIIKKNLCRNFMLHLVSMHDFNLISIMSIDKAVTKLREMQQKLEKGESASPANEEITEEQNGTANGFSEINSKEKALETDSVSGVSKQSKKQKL
Description: Effect of compounds of the present disclosure on EZH2/PRC2 complex methyltransferase functional activity was measured using the radioisotope-based HotSpot assay described by Horiuchi, K. Y., et al. Assay Drug Dev Technol. 11(4):227-36 (2013). Briefly, compounds were prepared in a 10-point 3-fold serial dilution in DMSO from a 10 mM stock in ECHO qualified plate using Assist Plus (Integra Biosciences) liquid handler. […] Nanoliter quantities of each compound's concentration series were transferred into the enzyme/substrate mix using (Echo 550, LabCyte Inc. Sunnyvale, Calif.) acoustic dispenser and pre-incubated for 20 min at room temperature. The methylation reaction was initiated by the addition of 1 μl of 5 μM S-Adenosyl-L-[methyl-^3H]methionine (^3H-SAM) and incubated at 30° C. for 1 h. The final concentration of the EZH2/PRC2 complex, core histone substrate and ^3H-SAM were 10 nM, 0.05 mg/ml, and 1 μM respectively. The % activity of test samples were calculated with reference to positive (no compound) and negative (no EZH2/PRC2) controls on the plate using Excel (Microsoft). The resulting values were exported to Prism (GraphPad software) to generate concentration response curves and IC50 values using the four-parameter logistic equation.

[1] = tested on: human P-glycoprotein HEK cells (HEK-P-gp); test: H3K27me3 immunocytochemistry assay in P-gp expressing HEK293T cells, with or without elacridar; assay type: cell-based; details: Homo sapiens, 4 days compound treatment
Method in brief: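 HEK293T stably expressing human ABCB1 (vinblastine-selected), 1000 cells/well, treated with serially diluted compound for 4 days at 37° C, with or without 250 nM elacridar. Fixed cells stained with anti-H3K27me3 plus Alexa 488 secondary and Hoechst; imaged at 10×, nuclei identified by Hoechst.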

[2] = HEK293, 96 h, without elacridar, read-out: IC50, inhibitory activity on human P-glycoprotein HEK cells (HEK-P-gp)
[3] = HEK293, with 250 nM elacridar, read-out: IC50, inhibitory activity on human P-glycoprotein HEK cells (HEK-P-gp) pretreated with elacridar

With `Cc1ncccc1-c1cc2c(n3cnnc13)NCc1cccc3c1[C@H](CO3)CO2` [Compound 1, (15R)-10-(2-methyl-3-pyridyl)-13,17-dioxa-3,5,7,8-tetrazapentacyclo[13.6.1.04,12.05,9.018,22] docosa-1(22),4(12),6,8,10,18,20-heptaene] the IC50 (EZH2/PRC2 complex) was less than 25 nM, the IC50 [1, 2] was 100 to 500 nM and the IC50 [1, 3] was less than 25 nM.

For `CC(=O)N1CCC(c2cc3c(n4cnnc24)NCc2cccc4c2[C@@H](CO4)CO3)CC1` [Compound 3, (S)-1-(4-(7a,8,13,14-tetrahydro-7H-[1,2,4]triazolo[4′,3′:1,6]pyrido[3,2-b]benzofuro[4,3-fg][1,4]oxazonin-4-yl)piperidin-1-yl)ethan-1-one], the IC50 (EZH2/PRC2 complex) was less than 25 nM, the IC50 [1, 2] was greater than 500 nM and the IC50 [1, 3] was 100 to 500 nM.

In the case of `CC(=O)N1CCC(c2cc3c(n4cnnc24)NCc2c(F)cccc2CCO3)CC1` [Compound 4, 1-(4-(12-fluoro-7,8,13,14-tetrahydro-[1,2,4]triazolo[4′,3′:1,6]pyrido[3,2-b]benzo[f][1,4]oxazonin-4-yl)piperidin-1-yl)ethan-1-one], the IC50 (EZH2/PRC2 complex) is reported as less than 25 nM, the IC50 [1, 2] is reported as greater than 500 nM and the IC50 [1, 3] is reported as greater than 500 nM.

`Cc1ncccc1-c1cc2c(n3cnnc13)NCc1c(F)cccc1CCO2` [Compound 5, 12-fluoro-4-(2-methylpyridin-3-yl)-7,8,13,14-tetrahydro-[1,2,4]triazolo[4′,3′:1,6]pyrido[3,2-b]benzo[f][1,4]oxazonine] gave an IC50 (EZH2/PRC2 complex) of 25 to 50 nM, an IC50 [1, 2] greater than 500 nM and an IC50 [1, 3] greater than 500 nM.

For `Cc1ncccc1-c1cc2c(n3cnnc13)NCc1c(F)cccc1COC2` [Compound 6, 12-fluoro-4-(2-methylpyridin-3-yl)-6,8,13,14-tetrahydro-[1,2,4]triazolo[4′,3′:1,6]pyrido[3,2-c]benzo[g][1,5]oxazonine], the IC50 (EZH2/PRC2 complex) was greater than 500 nM, the IC50 [1, 2] was greater than 500 nM and the IC50 [1, 3] was greater than 500 nM.

Work on `Cn1cc(Cc2cc3c(n4cnnc24)NCc2cccc4c2[C@@H](CO4)CO3)cn1` [Compound 7, (S)-4-((1-methyl-1H-pyrazol-4-yl)methyl)-7a,8,13,14-tetrahydro-7H-[1,2,4]triazolo[4′,3′:1,6]pyrido[3,2-b]benzofuro[4,3-fg][1,4]oxazonine] yielded an IC50 (EZH2/PRC2 complex) of less than 25 nM, an IC50 [1, 2] greater than 500 nM and an IC50 [1, 3] of 100 to 500 nM.

`Cn1cc(Cc2cc3c(n4cnnc24)NCc2c(F)ccc4c2[C@@H](CO4)CO3)cn1` [Compound 10, (S)-12-fluoro-4-((1-methyl-1H-pyrazol-4-yl)methyl)-7a,8,13,14-tetrahydro-7H-[1,2,4]triazolo[4′,3′:1,6]pyrido[3,2-b]benzofuro[4,3-fg][1,4]oxazonine] was tested, and the IC50 (EZH2/PRC2 complex) was less than 25 nM, the IC50 [1, 2] was greater than 500 nM and the IC50 [1, 3] was 100 to 500 nM.

`c1cc2c3c(c1)OC[C@H]3COc1ccc3nncn3c1NC2` [Compound 11, (S)-7a,8,13,14-tetrahydro-7H-[1,2,4]triazolo[4′,3′:1,6]pyrido[3,2-b]benzofuro[4,3-fg][1,4]oxazonine] showed an IC50 (EZH2/PRC2 complex) of 100 to 500 nM, an IC50 [1, 2] greater than 500 nM and an IC50 [1, 3] greater than 500 nM.

`Fc1ccc2c3c1CNc1c(cc(C4COC4)c4nncn14)OC[C@@H]3CO2` [Compound 12, (S)-12-fluoro-4-(oxetan-3-yl)-7a,8,13,14-tetrahydro-7H-[1,2,4]triazolo[4′,3′:1,6]pyrido[3,2-b]benzofuro[4,3-fg][1,4]oxazonine] was tested, and the IC50 (EZH2/PRC2 complex) was less than 25 nM, the IC50 [1, 2] was 50 to 100 nM and the IC50 [1, 3] was 25 to 50 nM.

With `Cc1ncc(-c2cc3c(n4cnnc24)NCc2c(F)ccc4c2[C@@H](CO4)CO3)c(C)n1` [Compound 13, (S)-4-(2,4-dimethylpyrimidin-5-yl)-12-fluoro-7a,8,13,14-tetrahydro-7H-[1,2,4]triazolo[4′,3′:1,6]pyrido[3,2-b]benzofuro[4,3-fg][1,4]oxazonine] the IC50 (EZH2/PRC2 complex) was less than 25 nM, the IC50 [1, 2] was 25 to 50 nM and the IC50 [1, 3] was less than 25 nM.

`Cc1ncc(-c2cc3c(n4cnnc24)NCc2c(F)cccc2CCO3)c(C)n1` [Compound 14, 4-(2,4-dimethylpyrimidin-5-yl)-12-fluoro-7,8,13,14-tetrahydro-[1,2,4]triazolo[4′,3′:1,6]pyrido[3,2-b]benzo[f][1,4]oxazonine] was tested, and the IC50 (EZH2/PRC2 complex) was 50 to 100 nM, the IC50 [1, 2] was greater than 500 nM and the IC50 [1, 3] was greater than 500 nM.

Compound `Cc1cn(-c2cc3c(n4cnnc24)NCc2c(F)ccc4c2[C@@H](CO4)CO3)cn1` [Compound 15, (S)-12-fluoro-4-(4-methyl-1H-imidazol-1-yl)-7a,8,13,14-tetrahydro-7H-[1,2,4]triazolo[4′,3′:1,6]pyrido[3,2-b]benzofuro[4,3-fg][1,4]oxazonine] has an IC50 (EZH2/PRC2 complex) of less than 25 nM, an IC50 [1, 2] of 25 to 50 nM and an IC50 [1, 3] of less than 25 nM.

Work on `COC(=O)N1CCC(c2cc3c(n4cnnc24)NCc2c(F)ccc4c2C(CO4)CO3)CC1` [Compound 16, methyl (S)-4-(12-fluoro-7a,8,13,14-tetrahydro-7H-[1,2,4]triazolo[4′,3′:1,6]pyrido[3,2-b]benzofuro[4,3-fg][1,4]oxazonin-4-yl)piperidine-1-carboxylate] yielded an IC50 (EZH2/PRC2 complex) of less than 25 nM, an IC50 [1, 2] of 100 to 500 nM and an IC50 [1, 3] of 50 to 100 nM.

`Fc1cncnc1-c1cc2c(n3cnnc13)NCc1c(F)ccc3c1[C@@H](CO3)CO2` [Compound 164, (S)-12-fluoro-4-(5-fluoropyrimidin-4-yl)-7a,8,13,14-tetrahydro-7H-[1,2,4]triazolo[4′,3′:1,6]pyrido[3,2-b]benzofuro[4,3-fg][1,4]oxazonine] was tested, and the IC50 (EZH2/PRC2 complex) was less than 25 nM, the IC50 [1, 2] was less than 25 nM and the IC50 [1, 3] was less than 25 nM.

`Fc1ccc2c3c1CNc1c(cc(Br)c4nncn14)OC[C@@H]3CO2` [Compound 165, (S)-4-bromo-12-fluoro-7a,8,13,14-tetrahydro-7H-[1,2,4]triazolo[4′,3′:1,6]pyrido[3,2-b]benzofuro[4,3-fg][1,4]oxazonine] was tested, and the IC50 (EZH2/PRC2 complex) was less than 25 nM, the IC50 [1, 2] was greater than 500 nM and the IC50 [1, 3] was greater than 500 nM.

Compound `Cn1nc(OC(F)F)cc1-c1cc2c(n3cnnc13)NCc1c(F)ccc3c1[C@@H](CO3)CO2` [Compound 167, (S)-4-(3-(difluoromethoxy)-1-methyl-1H-pyrazol-5-yl)-12-fluoro-7a,8,13,14-tetrahydro-7H-[1,2,4]triazolo[4′,3′:1,6]pyrido[3,2-b]benzofuro[4,3-fg][1,4]oxazonine] has an IC50 (EZH2/PRC2 complex) of less than 25 nM, an IC50 [1, 2] of less than 25 nM and an IC50 [1, 3] of less than 25 nM.

Compound `Cn1nc(F)cc1-c1cc2c(n3cnnc13)NCc1c(F)ccc3c1[C@@H](CO3)CO2` [Compound 168, (S)-12-fluoro-4-(3-fluoro-1-methyl-1H-pyrazol-5-yl)-7a,8,13,14-tetrahydro-7H-[1,2,4]triazolo[4′,3′:1,6]pyrido[3,2-b]benzofuro[4,3-fg][1,4]oxazonine] has an IC50 (EZH2/PRC2 complex) of less than 25 nM, an IC50 [1, 2] of less than 25 nM and an IC50 [1, 3] of less than 25 nM.

`Cn1nc(C(C)(C)C#N)cc1-c1cc2c(n3cnnc13)NCc1c(F)ccc3c1[C@@H](CO3)CO2` [Compound 169, (S)-2-(5-(12-fluoro-7a,8,13,14-tetrahydro-7H-[1,2,4]triazolo[4′,3′:1,6]pyrido[3,2-b]benzofuro[4,3-fg][1,4]oxazonin-4-yl)-1-methyl-1H-pyrazol-3-yl)-2-methylpropanenitrile] gave an IC50 (EZH2/PRC2 complex) of less than 25 nM, an IC50 [1, 2] of less than 25 nM and an IC50 [1, 3] of less than 25 nM.

In the case of `Cn1nccc1-c1cc2c(n3cc(C#N)nc13)NCc1c(F)ccc3c1[C@@H](CO3)CO2` [Compound 172, (S)-5-fluoro-12-(1-methyl-1H-pyrazol-5-yl)-6,7,15,15a-tetrahydro-1H-benzofuro[4,3-fg]imidazo[r,2′:1,6]pyrido[3,2-b][1,4]oxazonine-10-carbonitrile], the IC50 (EZH2/PRC2 complex) is reported as less than 25 nM, the IC50 [1, 2] is reported as 25 to 50 nM and the IC50 [1, 3] is reported as 25 to 50 nM.

`Cn1nccc1-c1cc2c(n3cc(C(N)=O)nc13)NCc1c(F)ccc3c1[C@@H](CO3)CO2` [Compound 175, (S)-5-fluoro-12-(1-methyl-1H-pyrazol-5-yl)-6,7,15,15a-tetrahydro-1H-benzofuro[4,3-fg]imidazo[r,2′:1,6]pyrido[3,2-b][1,4]oxazonine-10-carboxamide] was tested, and the IC50 (EZH2/PRC2 complex) was less than 25 nM, the IC50 [1, 2] was greater than 500 nM and the IC50 [1, 3] was 100 to 500 nM.

`Cc1ncccc1-c1cc2c(n3cc(C(N)=O)nc13)NCc1c(F)ccc3c1[C@@H](CO3)CO2` [Compound 176, (S)-5-fluoro-12-(2-methylpyridin-3-yl)-6,7,15,15a-tetrahydro-1H-benzofuro[4,3-fg]imidazo[r,2′:1,6]pyrido[3,2-b][1,4]oxazonine-10-carboxamide] showed an IC50 (EZH2/PRC2 complex) of 25 to 50 nM, an IC50 [1, 2] greater than 500 nM and an IC50 [1, 3] greater than 500 nM.

Work on `Cc1ncccc1-c1cc2c(n3cc(C#N)nc13)NCc1c(F)ccc3c1[C@@H](CO3)CO2` [Compound 186, (S)-5-fluoro-12-(2-methylpyridin-3-yl)-6,7,15,15a-tetrahydro-1H-benzofuro[4,3-fg]imidazo[1′,2′:1,6]pyrido[3,2-b][1,4]oxazonine-10-carbonitrile] yielded an IC50 (EZH2/PRC2 complex) of less than 25 nM, an IC50 [1, 2] of 50 to 100 nM and an IC50 [1, 3] of 25 to 50 nM.

In the case of `Cc1ncoc1-c1cc2c(n3cnnc13)NCc1c(F)ccc3c1[C@@H](CO3)CO2` [Compound 189, (S)-12-fluoro-4-(4-methyloxazol-5-yl)-7a,8,13,14-tetrahydro-7H-[1,2,4]triazolo[4′,3′:1,6]pyrido[3,2-b]benzofuro[4,3-fg][1,4]oxazonine], the IC50 (EZH2/PRC2 complex) is reported as less than 25 nM, the IC50 [1, 2] is reported as less than 25 nM and the IC50 [1, 3] is reported as less than 25 nM.
